Experiments:
human cancer cell lines = test: Cytotoxicity towards human cancer cell lines, overall comparison with cisplatin; format: cell-based; conditions: cytotoxicity across the tested cell lines
Procedure: (§1) Cytotoxicity assay: The compound/complex was dissolved in DMSO and diluted in DMSO. The final dilution was in the respective culture medium and the final concentration of DMSO was always below 0.01%. Cells were pipetted into microtitre plates (NUNC) at 4000 cells/well and incubated at 37° C. in 5% CO2 in air for 24 hr. Varying concentrations of the compounds/complexes were applied to the cells in 10 μl volumes. The plates were incubated for 3 days at 37° C. 5% CO2 in air. The viability of the cells was measured using the Dojindo kit CCK-8 (Cell counting Kit—8, Dojindo technologies USA, CK04-11) method after incubation for 3 hr in the absence of light. The plates were read on an ELISA plate reader at a wavelength of 450 nm.

[1] = proton borne by the heteroatom, literature value; cited from earlier work
[2] = test system: LNCaP (prostate carcinoma) cell line; test: Cytotoxicity assay (CCK-8 viability), LNCaP; format: cell-based, human; conditions: 3 days incubation
Procedure: as §1

[3] = test system: human urothelial cell line (SV-HUC-1); test: Cytotoxicity assay (CCK-8 viability), SV-HUC-1; format: cell-based; conditions: SV-HUC-1, 3 days incubation
Procedure: as §1

SMILES: CC(C)c1cccc(C(C)C)c1N1C=CN(c2c(C(C)C)cccc2C(C)C)[CH]1[Au][OH] [complex 2, [Au(OH)(IPr)]]
- Overall activity compared with cisplatin (human cancer cell lines): superior to that displayed by cisplatin

SMILES: Cc1ccc(O)cc1 [p-cresol (14b), p-cresol]
- pKa [1]: 18.9

SMILES: Cc1ccc(S)cc1 [p-thiocresol (14a), p-thiocresol]
- pKa [1]: 10.3

SMILES: N.N.[Cl][Pt][Cl] [cisplatin]
- IC50 [2]: 18 µM
- IC50 [3]: 25 µM

Reference: patent US9464097B2, “Gold complexes” (UNIVERSITY COURT OF THE UNIVERSITY OF ST. ANDREWS, priority 2010, dated 2016)
